Assay results: US20260355274A1 (Onkure, Inc., priority 2022, published 2026)

Assays:
[1] = test system: SKMEL2 melanoma cell line; test: 72 hour proliferation assay (CellTiter-Glo), SKMEL2 melanoma, NRAS mutated; assay type: cell-based; details: combined with binimetinib
Procedure: (§1) In particular, cells are grown in multi-well plates and incubated with the OKI-005 and binimetinib for 72 hours. The number of viable cells is determined by luminescence readout after the addition of CellTiter-Glo (CTG) dye.
In particular, in FIGS. 9A and 9B, cells are grown in multi-well plates and incubated with the OKI-005 and binimetinib for 72 hours. The number of viable cells is determined by luminescence readout after the addition of CellTiter-Glo (CTG) dye. SEM is the standard error of the mean, […]

[2] = test system: human uveal melanoma cell line MP46; test: 72 hour proliferation assay (CellTiter-Glo), uveal melanoma MP46; assay type: cell-based; details: combined with binimetinib, GNAQ/11 Q209L
Procedure: as §1

[3] = test system: MGMT-positive human tumor cell lines versus MGMT-negative human tumor cell lines; test: synergy in MGMT-positive versus MGMT-negative tumor cell lines; assay type: cell-based; details: combination with binimetinib compared to OKI-005 or binimetinib alone
[4] = test system: human uveal melanoma cell line 92-1; test: 72 hour proliferation assay (CellTiter-Glo), uveal melanoma 92-1; assay type: cell-based; details: combined with binimetinib, GNAQ/11 Q209L
Procedure: as §1

[5] = metabolism to active compound; details: to OKI-006
Description: The following figures are illustrative of specific embodiments of the invention and are not intended to otherwise limit the scope of the invention as described herein. OKI-005 is an in vitro optimized tool compound. […] In the figures, “bini” is equivalent to binimetinib (a MEK 1/2 inhibitor) and “enco” is equivalent to encorafenib (a BRAF inhibitor).

[6] = test system: AGS human gastric adenocarcinoma hyperdiploid cell line; test: 72 hour proliferation assay (CellTiter-Glo), AGS, KRAS G12D; assay type: cell-based
Procedure: as §1
(§2) FIGS. 12A, 12B and 12C illustrate the results of studies of the combination of OKI-005 with each of binimetinib, GDC-0994 and sotorasib in the NCI-H358 (NSCLC KRAS^G12C) cell line. FIGS. 12D, 12E and 12F illustrate the results of studies of the combination of OKI-005 with each of binimetinib, GDC-0994 and MRTX1133 (a KRAS^G12D Inhibitor) in the AGS (Gastric KRAS^G12D) cell line. […] In particular, cells are grown in multi-well plates and incubated with the OKI-005 and binimetinib for 72 hours. The number of viable cells is determined by luminescence readout after the addition of CellTiter-Glo (CTG) dye.

[7] = test system: RAS mutated cell lines and RAS WT cell lines; test: 72-hour proliferation assay, RAS mutated versus RAS wild-type cell lines; assay type: cell-based; details: combined with binimetinib, physiologically relevant concentrations, Day 3 compared to Day 0
Description: . The RAS mutated cell lines and the RAS WT cell lines involved in this study represent conventional and well known cell lines for this purpose. See, e.g., FIG. 16.

[8] = test system: NCI-H358 non-small cell lung cancer cell line; test: 72 hour proliferation assay (CellTiter-Glo), NCI-H358, KRAS G12C; assay type: cell-based
Procedure: as §1, §2

[9] = mouse body weight change, HT29 xenograft study; assay type: in vivo; details: combined with binimetinib and encorafenib, up to 15 days after randomization
[10] = test system: patients with solid tumors; test: Phase 1 clinical trials in patients with solid tumors; assay type: in vivo, human; details: Phase 1, single agent, oral
advanced cancer patients = test: maximally-tolerated dose in advanced cancer patients; assay type: in vivo, human
Description: It will be appreciated that appropriate dosages can vary from patient to patient. Determining the optimal dosage will generally involve the balancing of the level of therapeutic benefit against any risk or deleterious side effects of the treatments described herein. The selected dosage level will depend on a variety of factors including, but not limited to, the activity of the particular compound, the route of administration, the time of administration, the rate of excretion of the compound, the duration of the treatment, other drugs, compounds, or materials used in combination, and the age, sex, weight, condition, general health, and prior medical history of the patient. The amount(s) of the compound(s) administered and the route of administration will ultimately be at the discretion of a physician. […] On Schedule 2, the MTD was 200 mg daily on a continuous dosing regimen and on Schedule 3, the MTD was 300 mg for 5 days on and 2 days off each week.

[11] = test system: RAS-pathway mutated models; test: preclinical activity in RAS-pathway mutated models; assay type: in vivo; details: in combination with binimetinib
Description: As an example of the frequency of mutations associated with various cancers, mutations in NRAS account for 20% of all melanomas and affect approximately 65,000 patients worldwide. Such melanomas have a tendency to be more aggressive than their wild-type counterparts and frequently have poor outcomes. Current therapies for NRAS-mutant melanoma remain limited, with little efficacy. No targeted therapies are currently available post PD1i.

[12] = test system: HT29 BRAF^V600E colorectal (CRC) xenografts; test: HT29 BRAF V600E colorectal xenografts, regressions; assay type: in vivo, mouse; details: combined with binimetinib and encorafenib, following two weeks of dosing
SKMEL2 xenograft = test: SKMEL2 NRAS mutated xenograft, tumor growth and regressions; assay type: in vivo, mouse; details: for tumor growth delay and regressions: single agent, SKMEL2 NRAS mutated xenograft
Description: (§3) As used herein, “Son/2off” refers to a dosing schedule of 5 days on and 2 days off each week. […] Glyceraldehyde 3-phosphate dehydrogenase (GAPDH) was used as a control.

Ac-H3K9 = Ac-H3K9 in SKMEL2 tumors (HDACi PD); assay type: in vivo; details: 2 hours post dose
Description: as §3

[13] = test system: NCI-H358 KRAS^G12C non-small cell lung cancer xenografts; test: NCI-H358 KRAS G12C NSCLC xenografts, regressions; assay type: in vivo, mouse; details: combined with sotorasib, 50-day period after dosing
Description: As used herein, “4on/3off” refers to a dosing schedule of 4 days on and 3 days off each week.

mouse xenograft models = details: with binimetinib
HDAC 10 = HDAC 10 (Homo sapiens, UniProt Q969S8); test: enzymatic inhibition of HDAC 10; assay type: biochemical; details: HDAC 10, Class IIb
Description: (§4) The mammalian HDACs can be divided into four classes depending on their sequence homology, sub-cellular distribution and catalytic activity. Class I, Il and IV HDACs have a Zn^2+ cofactor in the catalytic site. Class III HDACs contain sirtuins 1-7 and are NAD^+-dependent. Class I (HDACs 1, 2, 3 and 8) share the same homology as Rpd3 and are preliminarily distributed in the nucleus of normal cells. Class II HDACs can be subdivided into class IIa HDACs and class Ilb HDACs. Class IIa enzymes (HDAC 4, 5, 7 and 9) shuttle between the nucleus and cytoplasm and are located in specific tissues such as the brain, heart, and muscle. Class IIb (HDACs 6 and 10) are chiefly located in the cytoplasm.

HDAC 7 = HDAC 7 (Homo sapiens, UniProt Q8WUI4); test: enzymatic inhibition of HDAC 7; assay type: biochemical
Sequence of HDAC 7 (Q8WUI4 whole entry): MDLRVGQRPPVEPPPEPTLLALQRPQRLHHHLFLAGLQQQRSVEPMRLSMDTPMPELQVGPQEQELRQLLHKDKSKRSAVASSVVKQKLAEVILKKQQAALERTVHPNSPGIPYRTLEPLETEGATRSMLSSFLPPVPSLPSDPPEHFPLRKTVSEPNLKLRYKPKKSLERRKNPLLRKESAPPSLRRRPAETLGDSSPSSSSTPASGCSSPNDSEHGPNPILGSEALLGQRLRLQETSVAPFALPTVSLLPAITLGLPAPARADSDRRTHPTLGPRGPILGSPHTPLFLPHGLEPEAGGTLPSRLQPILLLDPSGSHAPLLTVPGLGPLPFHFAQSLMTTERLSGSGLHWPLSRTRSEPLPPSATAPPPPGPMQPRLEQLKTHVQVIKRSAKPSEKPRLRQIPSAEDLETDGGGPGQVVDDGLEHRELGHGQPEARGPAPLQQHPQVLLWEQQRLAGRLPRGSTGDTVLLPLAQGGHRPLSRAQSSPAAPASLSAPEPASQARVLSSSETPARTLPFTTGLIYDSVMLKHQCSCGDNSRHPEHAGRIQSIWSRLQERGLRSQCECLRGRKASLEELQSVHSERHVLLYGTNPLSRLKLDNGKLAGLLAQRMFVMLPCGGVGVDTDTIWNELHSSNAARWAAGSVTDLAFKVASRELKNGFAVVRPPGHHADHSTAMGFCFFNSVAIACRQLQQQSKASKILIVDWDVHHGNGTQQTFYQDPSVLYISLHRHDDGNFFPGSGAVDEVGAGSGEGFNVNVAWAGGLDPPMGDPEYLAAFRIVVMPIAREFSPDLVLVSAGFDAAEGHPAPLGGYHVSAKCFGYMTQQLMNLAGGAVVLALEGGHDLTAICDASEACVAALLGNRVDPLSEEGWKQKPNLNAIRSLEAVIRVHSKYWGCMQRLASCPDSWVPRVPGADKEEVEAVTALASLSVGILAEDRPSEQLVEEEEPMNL
Description: as §4

HDAC 4 = HDAC 4 (Homo sapiens, UniProt P56524); test: enzymatic inhibition of HDAC 4; assay type: biochemical
Sequence of HDAC 4 (P56524 whole entry): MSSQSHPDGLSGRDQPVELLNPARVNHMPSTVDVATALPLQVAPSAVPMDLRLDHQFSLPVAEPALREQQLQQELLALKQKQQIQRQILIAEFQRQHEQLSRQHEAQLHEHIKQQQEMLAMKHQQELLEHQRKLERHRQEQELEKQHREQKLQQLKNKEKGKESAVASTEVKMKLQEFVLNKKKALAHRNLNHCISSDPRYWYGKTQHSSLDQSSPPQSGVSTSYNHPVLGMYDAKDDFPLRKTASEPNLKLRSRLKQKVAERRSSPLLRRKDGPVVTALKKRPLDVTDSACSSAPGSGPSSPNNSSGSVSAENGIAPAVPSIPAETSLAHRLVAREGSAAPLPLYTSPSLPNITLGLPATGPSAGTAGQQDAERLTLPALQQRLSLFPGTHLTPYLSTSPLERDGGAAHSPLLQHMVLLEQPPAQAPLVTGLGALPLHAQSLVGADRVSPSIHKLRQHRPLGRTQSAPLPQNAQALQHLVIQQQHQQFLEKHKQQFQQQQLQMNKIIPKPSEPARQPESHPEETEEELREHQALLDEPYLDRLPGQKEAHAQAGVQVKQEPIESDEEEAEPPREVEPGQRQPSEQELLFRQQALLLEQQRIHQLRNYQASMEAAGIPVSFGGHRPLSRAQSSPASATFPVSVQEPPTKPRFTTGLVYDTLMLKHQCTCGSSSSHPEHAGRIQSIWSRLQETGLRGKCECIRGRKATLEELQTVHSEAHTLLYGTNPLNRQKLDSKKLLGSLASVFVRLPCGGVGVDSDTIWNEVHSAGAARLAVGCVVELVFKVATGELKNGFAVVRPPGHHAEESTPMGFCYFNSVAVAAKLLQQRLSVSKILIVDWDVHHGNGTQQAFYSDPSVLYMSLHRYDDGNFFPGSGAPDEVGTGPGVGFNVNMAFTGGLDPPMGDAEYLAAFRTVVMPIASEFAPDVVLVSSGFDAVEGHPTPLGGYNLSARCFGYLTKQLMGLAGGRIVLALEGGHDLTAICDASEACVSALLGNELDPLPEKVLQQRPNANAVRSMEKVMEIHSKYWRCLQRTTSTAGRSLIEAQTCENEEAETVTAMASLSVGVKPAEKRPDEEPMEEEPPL
Description: as §4

HDAC 11 = HDAC 11 (Homo sapiens, UniProt Q96DB2); test: enzymatic inhibition of HDAC 11; assay type: biochemical; details: HDAC 11, Class IV
Sequence of HDAC 11 (Q96DB2 whole entry): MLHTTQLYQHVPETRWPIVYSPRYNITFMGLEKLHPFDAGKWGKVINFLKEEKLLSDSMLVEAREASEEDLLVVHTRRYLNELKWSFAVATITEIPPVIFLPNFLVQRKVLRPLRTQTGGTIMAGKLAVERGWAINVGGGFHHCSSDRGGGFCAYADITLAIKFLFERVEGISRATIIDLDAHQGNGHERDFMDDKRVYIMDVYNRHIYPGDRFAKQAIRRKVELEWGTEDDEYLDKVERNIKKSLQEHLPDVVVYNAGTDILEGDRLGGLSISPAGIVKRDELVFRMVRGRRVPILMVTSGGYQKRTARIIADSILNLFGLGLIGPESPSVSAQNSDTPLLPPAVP
Description: as §4

HDAC 9 = HDAC 9 (Homo sapiens, UniProt Q9UKV0); test: enzymatic inhibition of HDAC 9; assay type: biochemical
Sequence of HDAC 9 (Q9UKV0 whole entry): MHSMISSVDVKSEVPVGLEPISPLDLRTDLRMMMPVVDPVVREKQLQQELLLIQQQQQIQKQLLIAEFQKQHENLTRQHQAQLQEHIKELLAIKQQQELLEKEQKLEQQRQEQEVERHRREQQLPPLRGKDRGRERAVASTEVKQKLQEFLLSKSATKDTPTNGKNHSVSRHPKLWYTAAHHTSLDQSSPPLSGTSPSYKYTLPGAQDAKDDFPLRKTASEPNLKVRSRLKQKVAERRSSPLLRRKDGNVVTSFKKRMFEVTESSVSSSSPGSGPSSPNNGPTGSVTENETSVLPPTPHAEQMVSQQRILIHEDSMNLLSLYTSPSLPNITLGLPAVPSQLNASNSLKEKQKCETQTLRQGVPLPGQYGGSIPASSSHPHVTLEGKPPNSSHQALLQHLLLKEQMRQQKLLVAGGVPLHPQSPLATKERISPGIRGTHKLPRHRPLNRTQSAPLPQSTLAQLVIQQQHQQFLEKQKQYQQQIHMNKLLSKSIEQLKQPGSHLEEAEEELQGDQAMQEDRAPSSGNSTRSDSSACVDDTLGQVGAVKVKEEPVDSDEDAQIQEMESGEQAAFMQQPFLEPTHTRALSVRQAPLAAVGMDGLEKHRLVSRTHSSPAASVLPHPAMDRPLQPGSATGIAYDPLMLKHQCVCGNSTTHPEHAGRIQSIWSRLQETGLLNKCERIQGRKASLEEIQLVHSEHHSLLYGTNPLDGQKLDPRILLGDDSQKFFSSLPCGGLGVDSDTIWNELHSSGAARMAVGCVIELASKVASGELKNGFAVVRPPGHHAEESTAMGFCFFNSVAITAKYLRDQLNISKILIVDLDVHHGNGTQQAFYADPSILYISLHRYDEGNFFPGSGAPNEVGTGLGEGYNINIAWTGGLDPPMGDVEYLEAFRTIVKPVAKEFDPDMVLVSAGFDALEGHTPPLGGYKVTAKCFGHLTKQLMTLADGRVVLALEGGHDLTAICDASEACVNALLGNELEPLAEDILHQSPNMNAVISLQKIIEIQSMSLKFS
Description: as §4

HDAC 2 = HDAC 2 (Homo sapiens, UniProt Q92769); test: enzymatic inhibition of HDAC 2; assay type: biochemical
Sequence of HDAC 2 (Q92769 whole entry): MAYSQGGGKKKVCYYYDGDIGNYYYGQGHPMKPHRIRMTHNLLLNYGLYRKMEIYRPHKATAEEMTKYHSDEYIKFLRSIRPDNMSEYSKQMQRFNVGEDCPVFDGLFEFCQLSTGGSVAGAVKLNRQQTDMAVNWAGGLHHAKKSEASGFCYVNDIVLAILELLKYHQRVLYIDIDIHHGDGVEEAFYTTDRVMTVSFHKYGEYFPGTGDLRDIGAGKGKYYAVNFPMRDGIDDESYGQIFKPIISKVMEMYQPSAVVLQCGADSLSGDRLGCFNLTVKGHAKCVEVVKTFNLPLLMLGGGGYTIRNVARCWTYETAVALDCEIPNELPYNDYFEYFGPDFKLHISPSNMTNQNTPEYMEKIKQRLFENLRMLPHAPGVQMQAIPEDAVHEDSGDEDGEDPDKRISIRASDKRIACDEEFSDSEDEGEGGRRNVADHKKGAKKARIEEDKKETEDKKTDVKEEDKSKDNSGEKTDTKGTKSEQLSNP
Description: as §4

HDAC 5 = HDAC 5 (Homo sapiens, UniProt Q9UQL6); test: enzymatic inhibition of HDAC 5; assay type: biochemical
Sequence of HDAC 5 (Q9UQL6 whole entry): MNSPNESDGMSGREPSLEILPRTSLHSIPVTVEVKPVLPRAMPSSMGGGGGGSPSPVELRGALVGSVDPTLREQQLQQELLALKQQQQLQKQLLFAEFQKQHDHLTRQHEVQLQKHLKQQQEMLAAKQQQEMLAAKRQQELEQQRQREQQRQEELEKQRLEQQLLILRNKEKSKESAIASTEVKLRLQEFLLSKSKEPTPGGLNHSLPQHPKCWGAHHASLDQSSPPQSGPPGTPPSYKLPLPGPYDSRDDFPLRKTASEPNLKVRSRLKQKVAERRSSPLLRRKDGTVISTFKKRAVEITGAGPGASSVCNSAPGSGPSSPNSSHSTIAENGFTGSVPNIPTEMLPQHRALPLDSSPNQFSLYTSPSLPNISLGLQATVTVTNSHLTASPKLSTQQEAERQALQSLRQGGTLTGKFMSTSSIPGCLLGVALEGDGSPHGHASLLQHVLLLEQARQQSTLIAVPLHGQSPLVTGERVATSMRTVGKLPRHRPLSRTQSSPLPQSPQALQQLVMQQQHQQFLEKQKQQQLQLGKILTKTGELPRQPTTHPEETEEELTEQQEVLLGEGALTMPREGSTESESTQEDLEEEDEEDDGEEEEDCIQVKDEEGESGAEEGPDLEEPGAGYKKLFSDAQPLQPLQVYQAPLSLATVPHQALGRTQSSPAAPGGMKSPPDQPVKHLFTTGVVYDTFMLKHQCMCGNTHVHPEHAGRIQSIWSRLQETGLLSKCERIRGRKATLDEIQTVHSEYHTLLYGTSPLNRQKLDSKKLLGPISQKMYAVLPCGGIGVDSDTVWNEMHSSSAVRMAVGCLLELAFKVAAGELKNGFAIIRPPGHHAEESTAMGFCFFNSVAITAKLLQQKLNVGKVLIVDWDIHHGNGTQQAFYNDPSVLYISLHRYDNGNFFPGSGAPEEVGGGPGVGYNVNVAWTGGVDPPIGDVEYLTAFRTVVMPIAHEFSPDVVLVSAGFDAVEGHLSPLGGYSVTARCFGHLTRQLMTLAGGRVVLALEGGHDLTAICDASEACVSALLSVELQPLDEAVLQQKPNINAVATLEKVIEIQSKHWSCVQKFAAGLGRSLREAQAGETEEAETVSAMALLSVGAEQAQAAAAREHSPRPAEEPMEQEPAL
Description: as §4

HDAC 6 = HDAC 6 (Homo sapiens, UniProt Q9UBN7); test: enzymatic inhibition of HDAC 6; assay type: biochemical
Description: as §4

HDAC 8 = HDAC 8 (Homo sapiens, UniProt Q9BY41); test: enzymatic inhibition of HDAC 8; assay type: biochemical
Description: as §4

pERK = pERK in SKMEL2 tumors (MEKi PD); assay type: in vivo; details: 2 hours post dose
Description: as §3

[14] = test system: KRAS^G12C pancreatic cancer; details: single-agent RAS pathway inhibition; cited from earlier work
[15] = test system: KRAS^G12C colorectal cancer (CRC); details: single-agent RAS pathway inhibition; cited from earlier work
[16] = test system: BRAF^V600E colorectal cancer (CRC); details: single-agent RAS pathway inhibition; cited from earlier work
BRAF^V600E melanoma = details: single-agent RAS pathway inhibition; cited from earlier work
[17] = combined with binimetinib, 72 hours, KRAS

Structure (SMILES): CCCCCCCC(=O)SCC/C=C/[C@@H]1CC(=O)NCc2nc(cs2)C(=O)NC(C)(C)C(=O)N[C@@H](C(C)C)C(=O)O1 [OKI-005]
- anti-proliferative activity, synergy ([1]; 72 hours, NRAS): synergistic anti-proliferative activity
- cell growth inhibition and cell death (PARP cleavage) ([1]; NRAS-mutated SKMEL2): significant cell growth inhibition and cell death
- anti-proliferative activity, synergy [2]: synergistic anti-proliferative activity
- synergistic effects in MGMT-positive versus MGMT-negative cell lines [3]: synergistic effects
- anti-proliferative activity, synergy [4]: synergistic anti-proliferative activity
- metabolism to active compound [5]: metabolized to the same active compound, OKI-006
- Loewe synergy ([6]; combined with GDC-0994, KRAS^G12D): combination synergy was observed in all cases
- Loewe synergy ([6]; combined with MRTX1133, KRAS^G12D): combination synergy was observed in all cases
- anti-proliferative activity, synergy [6, 17]: synergistic anti-proliferative activity
- Loewe synergy ([6]; combined with binimetinib, 72 hours, KRAS^G12D): combination synergy was observed in all cases
- synergy, RAS mutated compared to RAS wild-type [7]: a superior effect greater than that of either agent alone
- Loewe synergy ([8]; combined with GDC-0994, KRAS^G12C): combination synergy was observed in all cases
- anti-proliferative activity, synergy [8, 17]: synergistic anti-proliferative activity
- Loewe synergy ([8]; combined with binimetinib, 72 hours, KRAS^G12C): combination synergy was observed in all cases
- Loewe synergy ([8]; combined with sotorasib, KRAS^G12C): combination synergy was observed in all cases

Structure (SMILES): CC(C)[C@H](N)C(=O)SCC/C=C/[C@@H]1CC(=O)NCc2nc(cs2)C(=O)NC(C)(C)C(=O)N[C@@H](C(C)C)C(=O)O1.O=S(=O)(O)c1ccccc1 [OKI-179]
- mouse body weight loss [9]: greater weight loss than either OKI-179 alone or the combination of binimetinib and encorafenib
- pharmacodynamic activity [10]: strong pharmacodynamic activity at tolerated doses
- recommended Phase 2 dose (RP2D) (advanced cancer patients; Schedule 1, oral, 4 days on and 3 days off each week): 300 mg
- MTD (advanced cancer patients; Schedule 1, oral, daily, 4 days on and 3 days off each week): 450 mg
- MTD (advanced cancer patients; Schedule 2, oral, daily, continuous dosing regimen): 200 mg
- MTD (advanced cancer patients; Schedule 3, oral, 5 days on and 2 days off each week): 300 mg
- regressions [11]: regressions in multiple RAS-pathway mutated models
- metabolism to active compound [5]: metabolized to the same active compound, OKI-006
- regressions [12]: significantly increased regressions compared to either OKI-179 alone or the combination of binimetinib and encorafenib
- regressions (SKMEL2 xenograft; combination with binimetinib versus either single agent, following two weeks of dosing): significantly increased regressions compared to either single agent
- tumor growth delay and regressions (SKMEL2 xenograft): tumor growth delay, but few regressions
- on-target PD activity, Ac-H3K9 (HDACi PD) (Ac-H3K9): strong on-target PD activity
- regressions [13]: significantly increased regressions compared to either OKI-179 or sotorasib alone
- synergy at physiologically-relevant doses (mouse xenograft models): synergy associated with OKI-179 and binimetinib occurs at physiologically-relevant doses of OKI-179

Structure (SMILES): C/C=C1\NC(=O)[C@@H](CS)NC(=O)[C@@H](C(C)C)NC(=O)C[C@@H](/C=C/CCS)OC(=O)[C@H](C(C)C)NC1=O [Red-FK228, reference compound]
- IC50 (HDAC 10): 0.9 nM
- IC50 (HDAC 7): > 1000 nM
- IC50 (HDAC 4): 647 nM
- IC50 (HDAC 11): 0.3 nM
- IC50 (HDAC 9): > 1000 nM
- IC50 (HDAC 2): 1 nM
- IC50 (HDAC 5): > 1000 nM
- IC50 (HDAC 6): 226 nM
- IC50 (HDAC 8): > 1000 nM

Structure (SMILES): Cn1cnc2c(F)c(Nc3ccc(Br)cc3F)c(C(=O)NOCCO)cc21 [binimetinib, reference compound]
- on-target PD activity, pERK (MEKi PD) (pERK): strong on-target PD activity
- tumor growth delay and regressions (SKMEL2 xenograft): tumor growth delay, but few regressions

Structure (SMILES): C=CC(=O)N1CCN(c2nc(=O)n(-c3c(C)ccnc3C(C)C)c3nc(-c4c(O)cccc4F)c(F)cc23)[C@@H](C)C1 [sotorasib]
- effectiveness [14]: relative ineffectiveness
- effectiveness [15]: relative ineffectiveness

Structure (SMILES): CCCS(=O)(=O)Nc1ccc(F)c(C(=O)c2c[nH]c3ncc(-c4ccc(Cl)cc4)cc23)c1F [vemurafenib]
- effectiveness [16]: relative ineffectiveness
- effectiveness (BRAF^V600E melanoma): relative ineffectiveness
